Where two headings read alike, the source gives them in different places.
Experiments:
[1] = target: T1, HCV NS3/4A protease complex, BMS strain (UniProt P27958, species not given/STRAIN_BMS); assay: FRET peptide assay to monitor HCV NS3/4A proteolytic activity (BMS strain); assay type: biochemical, Hepatitis C virus (genotype 1a); settings: read-out: HCV Protease (IC50), NS3/4A BMS strain
T1 construct: other: NS3/4A BMS strain; activity range class; numeric values, unit not given; said of H77 and J4L6S; fused on or other part: A three-lysine solubilising tail at the C-terminus of NS4A; A His tag is implied by the pET21b vector and Ni-NTA purification; Both are printed for the H77 and J4L6S constructs and apply to BMS by inference
T1 sequence (P27958 1027-1657, change not shown, one chain of several): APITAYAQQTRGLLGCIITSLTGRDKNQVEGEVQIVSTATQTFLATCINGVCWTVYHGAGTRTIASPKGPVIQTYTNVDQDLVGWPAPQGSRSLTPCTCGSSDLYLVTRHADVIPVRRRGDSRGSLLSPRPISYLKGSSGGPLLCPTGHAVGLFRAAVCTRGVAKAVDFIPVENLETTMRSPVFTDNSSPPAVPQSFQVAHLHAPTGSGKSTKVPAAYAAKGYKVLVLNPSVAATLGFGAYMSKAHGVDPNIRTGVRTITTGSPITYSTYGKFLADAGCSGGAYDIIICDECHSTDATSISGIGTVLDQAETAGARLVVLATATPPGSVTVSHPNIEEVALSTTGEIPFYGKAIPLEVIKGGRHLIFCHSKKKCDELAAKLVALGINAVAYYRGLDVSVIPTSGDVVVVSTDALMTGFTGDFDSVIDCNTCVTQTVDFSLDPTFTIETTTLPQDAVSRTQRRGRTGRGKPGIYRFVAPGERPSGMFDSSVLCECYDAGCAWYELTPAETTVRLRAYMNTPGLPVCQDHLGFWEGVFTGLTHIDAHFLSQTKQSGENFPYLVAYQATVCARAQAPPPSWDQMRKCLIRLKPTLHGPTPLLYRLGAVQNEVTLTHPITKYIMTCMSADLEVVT
Outline: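 Purified recombinant NS3/4A complex from genotype 1a BMS strain, 2-3 nM final, with RET S1 EDANS/DABCYL depsipeptide substrate at 2 μM final in HEPES pH 7.5, NaCl, Triton, glycerol, βME. Cleavage followed in real time by fluorescence. For high-potency compounds: 50 μg/ml BSA added, protease lowered to 300 pM.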

[2] = test system: HCV replicon (strain 1b) in HUH-7 cells; assay: HCV replicon FRET assay; assay type: cell-based, Hepatitis C virus
[3] = Hepatitis C virus, Huh-7, read-out: HCV Pro Replicon (EC50), HCV replicon cell assay, activity range class
[4] = Hepatitis C virus, Huh-7, read-out: HCV Pro Replicon (EC50), HCV replicon cell assay, numeric values, unit inferred
[5] = read-out: HCV Pro Replicon (EC50), HCV replicon cell assay, activity range class

Structure (SMILES)	IC50 ([1]; activity range class)	EC50 [2, 3]	IC50 ([1]; numeric values, unit inferred)	EC50 [2, 4]	EC50 [2, 5]
C=C[C@@H]1C[C@]1(NC(=O)[C@@H]1C[C@@H](Oc2nc(N(C)C)cc3c(OC)cccc23)CN1C(=O)C(Nc1cccc(C)n1)C(C)(C)C)C(=O)NS(=O)(=O)C1CC1 (single isomer, unassigned) [Compound 38A]	0.6 to 20 nM	3 to 100 nM	–	–	–
C=C[C@@H]1C[C@]1(NC(=O)[C@@H]1C[C@@H](Oc2ncc(OC)c3ccc(Cl)cc23)CN1C(=O)[C@H](Nc1cccc(C(=O)OC)c1)C(C)(C)C)C(=O)NS(=O)(=O)C1CC1 [232 second isomer, N-(3-(methoxycarbonyl)phenyl)-3-methyl-D-valyl-(4R)-4-((7-chloro-4-methoxy-1-isoquinolinyl)oxy)-N-((1R,2S)-1-((cyclopropylsulfonyl)carbamoyl)-2-vinylcyclopropyl)-L-prolinamide]	20 to 200 nM	3 to 100 nM	–	–	–
C=C[C@@H]1C[C@]1(NC(=O)[C@@H]1C[C@@H](Oc2nccc3cc(OC)ccc23)CN1C(=O)[C@@H](Nc1nc(CC)cs1)C(C)(C)C)C(=O)NS(=O)(=O)C1CC1 [Compound 35, N-(4-ethyl-1,3-thiazol-2-yl)-3-methyl-L-valyl-(4R)—N-((1R,2S)-1-((cyclopropylsulfonyl)carbamoyl)-2-vinylcyclopropyl)-4-((6-methoxy-1-isoquinolinyl)oxy)-L-prolinamide]	0.6 to 20 nM	3 to 100 nM	–	–	–
C=C[C@@H]1C[C@]1(NC(=O)[C@@H]1C[C@@H](Oc2nccc3cc(OC)ccc23)CN1C(=O)[C@H](Nc1cc(C)cc(C)n1)C(C)(C)C)C(=O)NS(=O)(=O)C1CC1 [14 second isomer, N-(4,6-dimethyl-2-pyridinyl)-3-methyl-D-valyl-(4R)—N-((1R,2S)-1-((cyclopropylsulfonyl)carbamoyl)-2-vinylcyclopropyl)-4-((6-methoxy-1-isoquinolinyl)oxy)-L-prolinamide]	> 200 nM	100 to 1000 nM	–	–	–
C=C[C@@H]1C[C@]1(NC(=O)[C@@H]1C[C@@H](Oc2nc(OC)cc3cc(OC)ccc23)CN1C(=O)C(Nc1cc(C)cc(C)n1)C(C)C)C(=O)NS(=O)(=O)C1CC1 (stereo partly drawn) [Compound 21, N-(4,6-dimethyl-2-pyridinyl)valyl-(4R)—N-((1R,2S)-1-((cyclopropylsulfonyl)carbamoyl)-2-vinylcyclopropyl)-4-((3,6-dimethoxy-1-isoquinolinyl)oxy)-L-prolinamide]	0.6 to 20 nM	3 to 100 nM	–	–	–
C=C[C@@H]1C[C@]1(NC(=O)[C@@H]1C[C@@H](Oc2ncc(OC)c3ccc(Cl)cc23)CN1C(=O)C(Nc1cncc(C(F)(F)F)c1)C(C)(C)C)C(=O)NS(=O)(=O)C1CC1 (single isomer, unassigned) [Compound 27A]	–	–	3 nM	4.09 nM	–
C=C[C@@H]1C[C@]1(NC(=O)[C@@H]1C[C@@H](Oc2ncc(OC)c3ccc(Cl)cc23)CN1C(=O)[C@@H](Nc1ccc(C#N)cc1)C(C)(C)C)C(=O)NS(=O)(=O)C1CC1 [205 first isomer, N-(4-cyanophenyl)-3-methyl-L-valyl-(4R)-4-((7-chloro-4-methoxy-1-isoquinolinyl)oxy)-N-((1R,2S)-1-((cyclopropylsulfonyl)carbamoyl)-2-vinylcyclopropyl)-L-prolinamide]	0.6 to 20 nM	3 to 100 nM	–	–	–
C=C[C@@H]1C[C@]1(NC(=O)[C@@H]1C[C@@H](Oc2nc(OC)cc3cc(OC)ccc23)CN1C(=O)C(Nc1ccccc1)C(C)(C)C)C(=O)NS(=O)(=O)C1CC1 (single isomer, unassigned) [20 first isomer]	0.6 to 20 nM	–	–	–	3 to 100 nM
C=C[C@@H]1C[C@]1(NC(=O)[C@@H]1C[C@@H](Oc2nc(OC)cc3cc(OC)ccc23)CN1C(=O)C(Nc1ccccc1)C(C)(C)C)C(=O)NS(=O)(=O)C1CC1 (single isomer, unassigned) [20 second isomer]	20 to 200 nM	–	–	–	100 to 1000 nM
C=C[C@@H]1C[C@]1(NC(=O)[C@@H]1C[C@@H](Oc2ncc(OC)c3ccc(Cl)cc23)CN1C(=O)C(Nc1nsnc1OCC)C(C)(C)C)C(=O)NS(=O)(=O)C1CC1 (stereo partly drawn) [Compound 243]	0.6 to 20 nM	3 to 100 nM	–	–	–
C=C[C@@H]1C[C@]1(NC(=O)[C@@H]1C[C@@H](Oc2ncc(OC)c3ccc(Cl)cc23)CN1C(=O)C(Nc1ccc(C)nc1)C(C)(C)C)C(=O)NS(=O)(=O)C1CC1 (single isomer, unassigned) [Compound 26B]	–	–	1300 nM	3190 nM	–
C=C[C@@H]1C[C@]1(NC(=O)[C@@H]1C[C@@H](Oc2ncc(OC)c3ccc(Cl)cc23)CN1C(=O)C(Nc1cc(Cl)cc(Cl)n1)C(C)(C)C)C(=O)NS(=O)(=O)C1CC1 (single isomer, unassigned) [Compound 32B]	> 200 nM	> 1000 nM	–	–	–
C=C[C@@H]1C[C@]1(NC(=O)[C@@H]1C[C@@H](Oc2ncc(OC)c3ccc(Cl)cc23)CN1C(=O)[C@@H](Nc1ccc(F)c(F)c1)C(C)(C)C)C(=O)NS(=O)(=O)C1CC1 [220 first isomer, N-(3,4-difluorophenyl)-3-methyl-L-valyl-(4R)-4-((7-chloro-4-methoxy-1-isoquinolinyl)oxy)-N-((1R,2S)-1-((cyclopropylsulfonyl)carbamoyl)-2-vinylcyclopropyl)-L-prolinamide]	0.6 to 20 nM	3 to 100 nM	–	–	–
C=C[C@@H]1C[C@]1(NC(=O)[C@@H]1C[C@@H](Oc2nc(N(C)C)cc3c(OC)cccc23)CN1C(=O)C(Nc1cccc(C)n1)C(C)(C)C)C(=O)NS(=O)(=O)C1CC1 (single isomer, unassigned) [Compound 38B]	–	–	5000 nM	7710 nM	–
C=C[C@@H]1C[C@]1(NC(=O)[C@@H]1C[C@@H](Oc2ncc(OC)c3ccc(Cl)cc23)CN1C(=O)[C@H](Nc1cccc(C(=O)OC(C)C)c1)C(C)(C)C)C(=O)NS(=O)(=O)C1CC1 [231 second isomer, N-(3-(isopropoxycarbonyl)phenyl)-3-methyl-D-valyl-(4R)-4-((7-chloro-4-methoxy-1-isoquinolinyl)oxy)-N-((1R,2S)-1-((cyclopropylsulfonyl)carbamoyl)-2-vinylcyclopropyl)-L-prolinamide]	> 200 nM	> 1000 nM	–	–	–
C=C[C@@H]1C[C@]1(NC(=O)[C@@H]1C[C@@H](Oc2ncc(OC)c3ccc(Cl)cc23)CN1C(=O)[C@@H](Nc1ccc(C(=O)O)cc1)C(C)(C)C)C(=O)NS(=O)(=O)C1CC1 [209 first isomer, N-(4-carboxyphenyl)-3-methyl-L-valyl-(4R)-4-((7-chloro-4-methoxy-1-isoquinolinyl)oxy)-N-((1R,2S)-1-((cyclopropylsulfonyl)carbamoyl)-2-vinylcyclopropyl)-L-prolinamide]	0.6 to 20 nM	3 to 100 nM	–	–	–
C=C[C@@H]1C[C@]1(NC(=O)[C@@H]1C[C@@H](Oc2nccc3cc(OC)ccc23)CN1C(=O)[C@@H](Nc1ccccc1)C(C)(C)C)C(=O)NS(=O)(=O)C1CC1 [15 first isomer, 3-methyl-N-phenyl-L-valyl-(4R)—N-((1R,2S)-1-((cyclopropylsulfonyl)carbamoyl)-2-vinylcyclopropyl)-4-((6-methoxy-1-isoquinolinyl)oxy)-L-prolinamide]	0.6 to 20 nM	3 to 100 nM	–	–	–
C=C[C@@H]1C[C@]1(NC(=O)[C@@H]1C[C@@H](Oc2ncc(OC)c3ccc(Cl)cc23)CN1C(=O)[C@@H](Nc1ccc(C(=O)OC(C)(C)C)cc1)C(C)(C)C)C(=O)NS(=O)(=O)C1CC1 [204 first isomer, tert-butyl 4-((S)-1-((2S,4R)-4-(7-chloro-4-methoxyisoquinolin-1-yloxy)-2-((1R,2S)-1-(cyclopropylsulfonylcarbamoyl)-2-vinylcyclopropylcarbamoyl)pyrrolidin-1-yl)-3,3-dimethyl-1-oxobutan-2-ylamino)benzoate]	0.6 to 20 nM	–	–	–	3 to 100 nM
